Values after ≈ are worked out from the molar mass of the structure shown. Marks after values point to notes of the source that are not given here.
How the values were obtained:
S. aureus (MRSA) = assay: MIC by broth microdilution; format: cell-based, Staphylococcus aureus; conditions: S. aureus (MRSA), N=74
Protocol: (§1) Minimal inhibitory concentrations (MICs) of exebacase against staphylococci were determined by broth microdilution (BMD) using a nonstandard antimicrobial susceptibility testing (AST) medium comprised of cation-adjusted Mueller Hinton broth (caMHB) supplemented with horse serum (Sigma Aldrich) and dithiothreitol (DTT; Sigma Aldrich) to final concentrations of 25% and 0.5 mM, respectively. This medium, referred to as caMHB-HSD, is approved for use in exebacase AST by the Clinical and Laboratory Standards Institute (CLSI) (CLSI. 2017, Jan. 16-17. AST Subcommittee Working Group Meetings and Plenary. AST Meeting Files & Resources, clsi.org/education/microbiology/ast/ast-meeting-files-resources/. Additional supplementation with 2.5% lysed red blood cells (Remel™, ThermoFisher) was included for analyses of streptococcal isolates, as recommended by CLSI. See CLSI, 2015. Methods for Dilution Antimicrobial Susceptibility Tests for Bacteria That Grow Aerobically, 10th Edition. Clinical and Laboratory Standards Institute, Wayne, Pa.
(§2) Daptomycin (Sigma Aldrich) and vancomycin hydrochloride (Sigma Aldrich) were tested following the reference BMD method for each. See CLSI. 2015. Methods for Dilution Antimicrobial Susceptibility Tests for Bacteria That Grow Aerobically, 10th Edition. Clinical and Laboratory Standards Institute, Wayne, Pa.

S. lugdunensis = assay: MIC by broth microdilution; format: cell-based, Staphylococcus lugdunensis; conditions: S. lugdunensis, N=49
Protocol: as §1, §2

S. haemolyticus = assay: MIC by broth microdilution; format: cell-based, Staphylococcus haemolyticus; conditions: S. haemolyticus, N=36
Protocol: as §1, §2

S. capitis = assay: MIC by broth microdilution; format: cell-based, Staphylococcus capitis; conditions: S. capitis, N=13
Protocol: as §1, §2

S. anginosus = assay: MIC by broth microdilution; format: cell-based, Streptococcus anginosus; conditions: S. anginosus (viridans), N=10
Protocol: as §1, §2

S. gordonii = assay: MIC by broth microdilution; format: cell-based, Streptococcus gordonii; conditions: S. gordonii (viridans), N=11
Protocol: as §1, §2

S. mitis = assay: MIC by broth microdilution; format: cell-based, Streptococcus mitis; conditions: S. mitis (viridans), N=18
Protocol: as §1, §2

S. oralis = assay: MIC by broth microdilution; format: cell-based, Streptococcus oralis; conditions: S. oralis (viridans), N=15
Protocol: as §1, §2

S. salivarius = assay: MIC by broth microdilution; format: cell-based, Streptococcus salivarius; conditions: S. salivarius (viridans), N=12
Protocol: as §1, §2

S. gallolyticus = assay: MIC by broth microdilution; format: cell-based, Streptococcus gallolyticus; conditions: S. gallolyticus (bovis), N=19
Protocol: as §1, §2

S. dysgalactiae = assay: MIC by broth microdilution; format: cell-based, Streptococcus dysgalactiae; conditions: S. dysgalactiae (group G), N=22
Protocol: as §1, §2

E. faecalis = assay: MIC by broth microdilution; format: cell-based, Enterococcus faecalis; conditions: E. faecalis (formerly group D), N=18
Protocol: as §1, §2

MRSA strain MW2 [1] = assay: Infective endocarditis rabbit model, CF-301 in series with daptomycin (Example 2); format: in vivo, rabbits; conditions: daptomycin alone 4 mg/kg intravenously
Protocol: The rational for selection of the daptomycin dose is as follows. Daptomycin pilot dose-response experiments were performed over a range from 1 mg/kg to 10 mg/kg, administered intravenously, once daily for 4 days in the infective endocarditis rabbit model described below, which was caused by the MRSA strain, MW2. FIG. 2 depicts data for individual animals, plotted as treatment regimen versus log10 CFU/g tissue (mean±SEM are shown). From these studies, a daptomycin dose-response was defined. […] In the rabbit infective endocarditis model, a daptomycin-alone dose of 4 mg/kg administered intravenously provided about 0.25 to 1.45 log10 reduction in bacterial burden compared to vehicle-treated controls.
A well-described indwelling transcarotid artery-to-left ventricle catheter-induced model of aortic valve infective endocarditis was used in rabbits. See Xiong et al., 2011, AAC, 55:P5325-5330. At 48 hours after catheter placement, infective endocarditis was induced by intravenous inoculums of about 2×10^5 CFU (the induction of ID95 of MRSA strain MW2 in this model). […] Daptomycin administration was continued once a day for 4 days. At 24 hours after the last dose of daptomycin, animals were humanely euthanized and cardiac vegetations, kidneys, and spleens were sterilely removed and quantitatively cultured. Bacterial density for each organ for the different treatment groups were calculated as mean log10 CFU/g of tissue (±95% confidence interval).

MRSA strain MW2 [2] = assay: Left-sided catheter-induced IE model due to MRSA, CF-301 dose strategies plus DAP (Example 4); format: in vivo, rabbits
Protocol: Briefly, female New Zealand White rabbits (Harlan Laboratories; 2.3 to 2.5 kg body weight) underwent transcarotid-transaortic valve catheterization, and IE was induced by IV infection of ˜1-2×10^5 cfu of MW2 at 48 hours (h) after catheterization. […] See also FIG. 4.
On day 5, animals were sacrificed, and target tissues (cardiac vegetations, kidney and spleen) were removed and quantitatively cultured. Tissue MRSA counts are given as the mean log10 CFU/g of tissue±SD).
A two-tailed Student's t test was used to analyze the tissue MRSA counts between different groups. P values <0.05 were considered significant. No adjustment was made for all the P values reported in this study.

[3] = system: MRSA strain MW2 (CA-MRSA; USA400); conditions: cited from earlier work

MIC Range (S. aureus (MRSA)): 0.125 to 1 mg/L | MIC50 (S. aureus (MRSA); Staphylococcus aureus, read-out: MIC50): 0.25 mg/L (≈ 0.154 µM) | MIC90 (S. aureus (MRSA); Staphylococcus aureus, read-out: MIC90): 0.5 mg/L (≈ 0.309 µM) | MIC Range (S. lugdunensis): 0.25 to 2 mg/L | MIC50 (S. lugdunensis; Staphylococcus lugdunensis, read-out: MIC50): 0.5 mg/L (≈ 0.309 µM) | MIC90 (S. lugdunensis; Staphylococcus lugdunensis, read-out: MIC90): 1 mg/L (≈ 0.617 µM) | MIC Range (S. capitis): 0.25 to 1 mg/L | MIC50 (S. capitis; Staphylococcus capitis, read-out: MIC50): 0.5 mg/L (≈ 0.309 µM) | MIC90 (S. capitis; Staphylococcus capitis, read-out: MIC90): 1 mg/L (≈ 0.617 µM) | MIC Range (S. anginosus): 0.25 to 0.5 mg/L | MIC50 (S. anginosus; Streptococcus anginosus, read-out: MIC50): 0.5 mg/L (≈ 0.309 µM) | MIC90 (S. anginosus; Streptococcus anginosus, read-out: MIC90): 0.5 mg/L (≈ 0.309 µM) | MIC Range (S. gordonii): 0.25 to 1 mg/L | MIC50 (S. gordonii; Streptococcus gordonii, read-out: MIC50): 0.5 mg/L (≈ 0.309 µM) | MIC90 (S. gordonii; Streptococcus gordonii, read-out: MIC90): 0.5 mg/L (≈ 0.309 µM) | MIC Range (S. mitis): 0.125 to 1 mg/L | MIC50 (S. mitis; Streptococcus mitis, read-out: MIC50): 0.5 mg/L (≈ 0.309 µM) | MIC90 (S. mitis; Streptococcus mitis, read-out: MIC90): 1 mg/L (≈ 0.617 µM) | MIC Range (S. oralis): 0.25 to 1 mg/L | MIC50 (S. oralis; Streptococcus oralis, read-out: MIC50): 0.5 mg/L (≈ 0.309 µM) | MIC90 (S. oralis; Streptococcus oralis, read-out: MIC90): 0.5 mg/L (≈ 0.309 µM) | MIC Range (S. salivarius): 0.06 to 0.5 mg/L | MIC50 (S. salivarius; Streptococcus salivarius, read-out: MIC50): 0.25 mg/L (≈ 0.154 µM) | MIC90 (S. salivarius; Streptococcus salivarius, read-out: MIC90): 0.5 mg/L (≈ 0.309 µM) | MIC Range (S. gallolyticus): 0.06 to 0.5 mg/L | MIC50 (S. gallolyticus; Streptococcus gallolyticus, read-out: MIC50): 0.125 mg/L (≈ 0.0771 µM) | MIC90 (S. gallolyticus; Streptococcus gallolyticus, read-out: MIC90): 0.25 mg/L (≈ 0.154 µM) | MIC Range (S. dysgalactiae): 0.06 to 0.5 mg/L | MIC50 (S. dysgalactiae; Streptococcus dysgalactiae, read-out: MIC50): 0.125 mg/L (≈ 0.0771 µM) | MIC90 (S. dysgalactiae; Streptococcus dysgalactiae, read-out: MIC90): 0.25 mg/L (≈ 0.154 µM) | MIC Range (E. faecalis): 0.25 to 0.5 mg/L | MIC50 (E. faecalis; Enterococcus faecalis, read-out: MIC50): 0.5 mg/L (≈ 0.309 µM) | MIC90 (E. faecalis; Enterococcus faecalis, read-out: MIC90): 0.5 mg/L (≈ 0.309 µM)
Structure (SMILES): CCCCCCCCCC(=O)N[C@@H](Cc1c[nH]c2ccccc12)C(=O)N[C@H](CC(N)=O)C(=O)N[C@@H](CC(=O)O)C(=O)N[C@@H]1C(=O)NCC(=O)N[C@@H](CCCN)C(=O)N[C@@H](CC(=O)O)C(=O)N[C@H](C)C(=O)N[C@@H](CC(=O)O)C(=O)NCC(=O)N[C@H](CO)C(=O)N[C@@H]([C@H](C)CC(=O)O)C(=O)N[C@@H](CC(=O)c2ccccc2N)C(=O)O[C@@H]1C [DAP, Daptomycin]
MIC Range (S. haemolyticus): 0.25 to 2 mg/L | MIC50 (S. haemolyticus; Staphylococcus haemolyticus, read-out: MIC50): 0.5 mg/L (≈ 0.309 µM) | MIC90 (S. haemolyticus; Staphylococcus haemolyticus, read-out: MIC90): 1 mg/L (≈ 0.617 µM) | bacterial burden remaining in treated animals (MRSA strain MW2 [1]): 5-7 log10 | reduction in bacterial burden compared to vehicle-treated controls (MRSA strain MW2 [1]; once daily for 4 days, pilot dose-response): 0.25 to 1.45 log10 | MRSA density, Mean Log10 CFU/g tissue ± SD, Kidneys (MRSA strain MW2 [2]; DAP alone 4 mg/kg QD): 4.62 ± 1.16^a Log10 CFU/g tissue | MRSA density, Mean Log10 CFU/g tissue ± SD, Spleen (MRSA strain MW2 [2]; DAP alone 4 mg/kg QD): 4.04 ± 0.87^a Log10 CFU/g tissue | reduction in MRSA densities in all three target tissues vs vehicle controls (MRSA strain MW2 [2]; DAP alone 4 mg/kg iv QD x 4 day): 2-3 log10 cfu/g | MIC [3]: 0.5 mg/L (≈ 0.309 µM)

Reference: patent US20220160842A1, “METHOD OF TREATING INFECTIVE ENDOCARDITIS” (priority 2019, published 2022)
